According to patent US20120065181A1, “METHOD OF PROVIDING NEUROPROTECTION USING SUBSTITUTED PORPHYRINS” (priority 2009, published 2012):

Key:
[1] = test system: subarachnoid hemorrhage (SAH) in mice; test: Neurologic evaluation after murine subarachnoid hemorrhage (endovascular perforation); assay type: in vivo
Excerpt: At completion of the predefined recovery interval, rats underwent a neurologic examination to evaluate sensorimotor function. The neurological scoring system evaluates four different functions (general status, simple motor deficit, complex motor deficit, and sensory deficit). The score given to each animal (by an observer blinded to group assignment) was the sum of all four individual scores, 0 being the minimum (best) score and 48 being the maximum (worst) score. This examination was developed combining features from several neurologic evaluations reported for rat MCAO and has been used in two long-term MCAO outcome studies to assess for differences in treatment outcome (Yokoo et al. Anesth Analg. 2004; 99:896-903; Sakai et al. Anesthesiology. 2007; 106:92-99; discussion 98-10.) Values from this scoring system correlate well with total infarct volume in rats allowed to survive 8 weeks post-MCAO (R2 value of 0.78, P=0.006, Sakai et al.) as well as 2 and 8 weeks post-MCAO (Yokoo et al.). […]
Seventy-two hrs post-SAH, mice were neurologically evaluated as described above, with the experimenter blinded to group assignment. Normal neurologic function was scored as 0 with the maximal deficit score=48. […]

[2] = test system: cerebral arteries of mice post-SAH; test: Arterial cross-sectional diameter by intraluminal arterial casting after murine SAH; assay type: in vivo; conditions: 72 hrs post-SAH
Protocol: Male mice (body weight=20-25 gm) were anesthetized with isoflurane and subjected to endovascular perforation of the right anterior cerebral artery just distal to the middle cerebral artery bifurcation. Mice were allowed to recover from anesthesia and randomly assigned to treatment ([…] MnTnHex-2-PyP^5+ twice per day, i.p. with treatment begun 60 min post-SAH, n=15) and vehicle (saline 0.1 ml twice a day, n=15) groups.
The mice were anesthetized and subjected to intraluminal arterial casting for later determination of arterial cross-sectional diameter. Subarachnoid clot size was graded using a standardized scoring system.
Three mice died in the vehicle group (2 died 3 days post-SAH, 1 died 2 days post-SAH). Neurologic scores in surviving mice and clot size were compared with the Mann-Whitney U statistic. Vessel diameters were compared with the Student's t test.

[3] = test system: rats subjected to 90 min MCAO; test: Neurologic score after 90 min middle cerebral artery occlusion (MCAO); assay type: in vivo, rat; conditions: then twice daily s.c. for 7 days
Excerpt: (§1) Male Wistar rats (250-275 gm; Harlan Sprague Dawley, Inc. Indianapolis, Ind.) were anesthetized with 64-mg/kg intraperitoneal sodium pentobarbital and positioned in a stereotactic head frame. The skin was infiltrated with 1.0% lidocaine and a midline scalp incision was made. A burr hole was drilled over the left hemisphere, 7.2 mm anterior to the interauralline and 1.4 mm lateral to the sagittal suture. An intracerebroventricular (ICV) cannula (33 gauge) was positioned with the tip in the left lateral ventricle and fixed in place with screws and cyanoacrylate. The incision was closed with suture around this assembly. After emergence from anesthesia, the animals were returned to their cages with free access to water and food.
Following 2-3 days recovery, rats were allowed access to water but fasted from food for 12 hours to standardize glycemic state. Rats were then anesthetized with isoflurane in O2. Following tracheal intubation, the lungs were mechanically ventilated to maintain normocapnia. A 22-g needle thermistor was percutaneously placed adjacent to the skull beneath the temporalis. Pericranial temperature was servoregulated at 37.5±0.1° C. by surface heating or cooling. […]
Rats were subjected to 90 min middle cerebral artery occlusion. […] The doses were repeatedly twice daily as subcutaneous injections for 7 days after which neurologic function was assessed as described above. […]

[4] = test system: rats subjected to 90 min MCAO; test: Cerebral infarct volume after 90 min MCAO; assay type: in vivo, rat; conditions: 7 days after MCAO
Excerpt: as §1
Following 2-3 days recovery, rats were allowed access to water but fasted from food for 12 hours to standardize glycemic state. Rats were then anesthetized with isoflurane in O2. Following tracheal intubation, the lungs were mechanically ventilated to maintain normocapnia. A 22-g needle thermistor was percutaneously placed adjacent to the skull beneath the temporalis. Pericranial temperature was servoregulated at 37.5±0.1° C. by surface heating or cooling. The inspired isoflurane concentration was adjusted to 1.0-1.5% in 50% O2/balance N2. The tail artery was cannulated. The animals were then prepared for MCAO as previously described [Mackensen et al. J. Neurosci. 21:4582-4592, 2001; Longa et al. Stroke 20:84-91, 1989]. A midline cervical incision was made and the right common carotid artery was identified. […] The internal carotid artery (ICA) was dissected distally until the origin of the pterygopalatine artery was visualized. Following surgical preparation, a 20 min interval was allowed for physiologic stabilization.
Five min before MCAO onset, heparin (50 IU intra-arterial) was given to prevent intra-arterial thrombosis. A 0.25-mm diameter nylon monofilament, prepared with a silicone tip, was inserted into the ECA stump and passed distally through the ICA (20 mm from carotid bifurcation) until resistance was felt and the filament was secured. At MCAO onset, isoflurane was reduced to 0.8-1.0%.
After 90 min of MCAO, the occlusive filament was removed. The anesthetic state and pericranial temperature regulation were continued for an additional 100 min. The tail artery catheter was removed and the wounds were closed with suture. Isoflurane was discontinued. Upon recovery of the righting reflex, the tracheas were extubated and the animals were placed in an O2 enriched environment (FIO2=50%) for 1 hour. Animals were then randomized to experimental groups (see below).
Animals were weighed, anesthetized with isoflurane, and decapitated. The brains were removed, frozen at −40° C. in 2-methylbutane, and stored at −70° C. Infarct volume was measured by comparing the volume of histologically normal tissue observed in the ischemic hemisphere to the expected volume of normal tissue as derived from measurements of the contralateral, non-ischemic hemisphere [Swanson et al. J. Cereb. Blood Flow Metab. 10:290-293, 1990]. Serial quadruplicate […] coronal sections were taken using a cryotome at […] over the rostral-caudal extent of the infarct. The sections were dried and stained with hematoxylin and eosin. A section from each 660-μm interval was digitized with a video camera controlled by an image analyzer. […] With the observer blinded to experimental condition, the following regions of interest (ROI) were cursor outlined: non-infarcted ipsilateral cerebral cortex, non-infarcted ipsilateral subcortex, contralateral cerebral cortex, and contralateral subcortex. The area within each ROI (mm2) was determined by automated counting of calibrated pixels. Ipsilateral non-infarcted cortex and subcortex areas were subtracted from the corresponding contralateral ROI values to estimate the area of ischemic tissue damage to control for brain edema [Lin et al. Stroke 24:117-121, 1993]. […]

[5] = test system: NF-κB; test: EMSA of NF-κB DNA binding in nuclear extracts of ischemic brain after MCAO; assay type: in vivo, rat; conditions: 225 μg/kg IV after 90 min MCAO, ischemic brain harvested six hr later, 2 treated vs 2 vehicle rats
Protocol: (§2) Intravenous MnTnHex-2-PyP^5+ (hexyl) decreases post-ischemic NF-κB DNA binding to a κB consensus oligo due inhibition of NF-κB p65 nuclear translocation. Data are from 4 rats subjected to 90 min MCAO and then treated with vehicle or MnTnHex-2-PyP^5+ (225 μg/kg IV). Six hr later, ischemic brain was harvested for EMSA performed on nuclear extracts ([…]). Upper gel (EMSA): D and E (without and with p65 antibody, respectively) are rat #1 (vehicle). F and G (without and with p65 antibody, respectively) are rat #2 (hexyl). H and I=vehicle rat #3 (with and without p65). J and K=rat #4 (hexyl) with and without p65. A-C are control lanes (A=probe only, B=positive control (HeLa nuclear extract), C=cold competitor). Two slower migrating DNA binding complexes are observed (shift). The proteins in the slower migrating complexes were identified by super shift analysis with […] of p65-specific antibody. […] Lower gel: […]) from the same nuclear samples were immunoblotted with NF-κB p65-specific antibody, confirming NF-κB inhibition by MnTnHex-2-PyP^5+.

[6] = test system: NF-κB p65; test: Immunoblot of nuclear samples with NF-κB p65-specific antibody after MCAO; assay type: in vivo, rat; conditions: 225 μg/kg IV after 90 min MCAO; ischemic brain harvested six hr later
Protocol: as §2

[7] = test system: TNF-α; test: Cerebral TNF-α level by ELISA after MCAO; assay type: in vivo, rat; conditions: 225 μg/kg IV 5 min after reperfusion, s.c. at 12 and 18 hrs post-MCAO; brains harvested 24 hrs post-MCAO; n=3; P=0.04
Protocol: (§3) Rats were subjected to 90 min middle cerebral artery occlusion. Five min after onset of reperfusion, rats were randomly treated with vehicle (n=3) or 225 μg/kg IV MnTnHex-2-PyP^5+ (n=3) followed by subcutaneous vehicle or 225 μg/kg MnTnHex-2-PyP^5+, respectively, at 12 and 18 hrs post-MCAO. Brains were harvested at 24 hrs post-MCAO and analyzed for TNF-α and IL-6 by fluorescent enzyme-linked immunosorbent assay. Whole cell lysates from the whole brain tissue were obtained at the end of each experiment according to manufacture's protocol (Roche) with light modification. In brief, about 100 mg of brain tissue, which was diced into small pieces using a clean razor blade on ice, was placed into a pre-chilled microcentrifuge tube and further processed with […] of ice-cold lysis buffer (50 mM Tris-HCl, pH 7.5, 150 mM NaCl, 1% Nonidet P40, 0.5% sodium deoxycholat, 0.1% SDS, protease inhibitors). Samples were homogenized 10 seconds and incubated for 30 minutes on ice. Homogenates were centrifuged at 14,000 g for 10 minutes at 4° C. Supernatants were collected and proteins were measured by a BCA Protein Assay Kit (Thermo Scientific). Cerebral levels of TNF-α and IL-6 were determined by rat specific ELISA kits (Thermo Scientific, IL) and normalized by the total amount of proteins (pg/mg).

[8] = test system: IL-6; test: Cerebral IL-6 level by ELISA after MCAO; assay type: in vivo, rat; conditions: 225 μg/kg IV 5 min after reperfusion, s.c. at 12 and 18 hrs post-MCAO; brains harvested 24 hrs post-MCAO; n=3; P=0.04
Protocol: as §3

What does the source list for `CCCCCC[n+]1ccccc1-c1c2nc(c(-c3cccc[n+]3CCCCCC)c3ccc([n-]3)c(-c3cccc[n+]3CCCCCC)c3nc(c(-c4cccc[n+]4CCCCCC)c4ccc1[n-]4)C=C3)C=C2.[Mn+3]` [MnTnHex-2-PyP^5+, Mn(III) 5,10,15,20-tetrakis(N-n-hexylpyridinium-2-yl)porphyrin]?
neuroscore (median±interquartile range) ([1]; 72 hrs post-SAH, 225 mg/kg twice per day i.p. begun 60 min post-SAH, n=14, 0=no deficit, maximal deficit 48, P=0.02 vs vehicle (14±21)): 2.5±9; deaths in treatment group ([1]; murine SAH, 225 mg/kg twice per day i.p., n=15, three mice died in vehicle group): One mouse in the MnTnHex-2-PyP^5+ group died at 2 days post-SAH; right anterior cerebral artery diameter (mean±SD) ([2]; vs vehicle 82±36 μm, P=0.0005): 130±19 μm; right middle cerebral artery diameter (mean±SD) ([2]; vs vehicle 83±33 μm, P=0.0033): 123±29 μm; right internal carotid artery diameter (mean±SD) ([2]; vs vehicle 109±35 μm, P=0.015): 143±30 μm; basilar artery diameter (mean±SD) ([2]; vs vehicle 198±19 μm, P=0.723, no effect of treatment): 200±17 μm; Neurologic score ([3]; 225 μg/kg i.v. 5 min after reperfusion onset, P=0.002 vs vehicle): improved; Neurologic score ([3]; 225 μg/kg intra-arterial plus s.c. 6 hours after reperfusion onset, P=0.04 vs vehicle): improved; cerebral infarct volume in the subcortex ([4]; 225 μg/kg i.v. 5 min after reperfusion onset, then twice a day s.c., P=0.01): reduced; reduction in total infarct volume ([4]; 225 μg/kg i.v. 5 min after reperfusion onset, then twice a day s.c., P=0.028): 32%; cerebral infarct volume in the cortex ([4]; 225 μg/kg i.v. 5 min after reperfusion onset, then twice a day s.c., P=0.05): reduced; cerebral infarct volume in the cortex ([4]; 225 μg/kg intra-arterial plus s.c. 6 hrs after reperfusion onset, then twice daily s.c., P=0.01): reduced; reduction in total infarct volume ([4]; 225 μg/kg intra-arterial plus s.c. 6 hrs after reperfusion onset, then twice daily s.c., P=0.03): 37%; Infarct size in the subcortex ([4]; 225 μg/kg intra-arterial plus s.c. 6 hrs after reperfusion onset, then twice daily s.c., P=0.58): not changed; post-ischemic NF-κB DNA binding to a κB consensus oligo (EMSA) [5]: Marked reduction; NF-κB p65 nuclear translocation (immunoblot of nuclear samples) [6]: inhibition; TNF-α concentration in brain [7]: decreased; IL-6 concentration in brain [8]: decreased
